Data published in patent US5750566A, “Synthetic excitatory amino acids” (Eli Lilly and Company, priority 1995, dated 1998).
Structures can show the parent of a compound that is named as a salt.

Assays:
[1] = test system: cAMP-linked metabotropic glutamate receptors; details: literature; cited from earlier work
[2] = test system: PI-linked metabotropic glutamate receptors; details: literature; for L-CCG-I at higher concentrations; cited from earlier work
[3] = test system: Long Evans rats; details: statement about clinically proven anxiolytics; cited from earlier work
[4] = test system: mice; details: statement about clinically proven anxiolytics; cited from earlier work
[5] = test system: metabotropic glutamate receptors; assay: Displacement of (1S,3R)-ACPD-sensitive [3H]glutamate binding to rat brain cell membranes (receptor binding); details: crude membranes of rat forebrain; compounds 3 and 8 tested as mixture of enantiomers, 6 and 7 as pure enantiomers; read-out: IC50 (concentration that inhibited 50% [3H]glutamate binding)
Protocol: The binding of [^3 H]glutamate ([^3 H]Glu) was conducted with crude membranes of rat forebrain as described by Schoepp and True. Schoepp and True, Neuroscience Lett., 145, 100-104 (1992); Wright, McDonald, and Schoepp, J. Neurochem., 63, 938-945 (1994). The concentration of the formula I compound that inhibited 50% binding (IC50), or the percent displacement of [^3 H]Glu at a 10 μM or 100 μM concentration of the formula I compound, is shown in Table I.

[6] = target: cAMP-linked metabotropic glutamate receptors (rat hippocampus); assay: Inhibition of forskolin-stimulated cAMP formation in rat hippocampus; format: biochemical
Protocol: (§1) The formula I compounds are effective in affecting the cAMP-linked metabotropic glutamate receptors. Representative compounds were tested for their ability to decrease forskolin-stimulated cAMP formation in the rat hippocampus and the rat cerebral cortex, using the procedures described in Schoepp and Johnson. Schoepp and Johnson, Neurochem. Int., 22, 277-283 (1993).

[7] = target: cAMP-linked metabotropic glutamate receptors (rat cerebral cortex); assay: Inhibition of forskolin-stimulated cAMP formation in rat cerebral cortex; format: biochemical
Protocol: as §1

[8] = test system: Long Evans rats; assay: Fear potentiated startle model of anxiety; format: in vivo, rat (male Long Evans)
Description: In the fear potentiated startle model, animals are exposed to a neutral stimulus such as light (conditioned stimulus) with an aversive stimulus such as a shock (unconditioned stimulus). Following conditioning, when the animals are presented with a loud acoustic stimulus, larger startle responses are elicited when the startle stimulus is preceded by light.
(§2) Male Long Evans rats (180-400 g) or male NIH Swiss mice (18-35 g) were obtained from Harlan Sprague-Dawley, Cumberland, Ind., USA and acclimated at least 3 days before testing. Animals were housed at 23±2° C.(relative humidity 30% to 70%) and given Purina Certified Rodent Chow and water ad libitum. The photoperiod was 12 hours of light and 12 hours of dark, with dark onset at approximately 1800 hours.
(§3) Test compounds were dissolved in a vehicle of purified water and neutralized with 5N NaOH to a pH of 7-8 when applicable. […] Control animals received the respective vehicle.
SL-LAB (San Diego Instruments, San Diego, Calif.) chambers were used for conditioning sessions and for the production and recording of startle responses. A classical conditioning procedure was used to produce potentiation of startle responses. Briefly, on the first 2 days, rats were placed into dark startle chambers in which shock grids were installed. […]

[9] = test system: Long Evans rats; assay: Auditory startle after nicotine withdrawal; format: in vivo, rat (Long Evans)
Protocol: This cessation of drug dosing elicits an increased startle response to auditory stimuli.
Long Evans rats (200-400 g; Harlan Sprague Dawley, Columbus, Ind.) were individually housed in a controlled environment on a 12 hour light-dark cycle and given free access to food (Purina Rodent Chow) and water. Rats were anesthetized with isoflurane and Alzet osmotic pumps (Alza Corporation) were implanted subcutaneously.
Test compound was dissolved in a vehicle of purified water and neutralized with 5N NaOH to a PH of 7-8 when applicable. […] Nicotine (Research Biochemicals Inc., Natick, Mass.) was dissolved in saline. Control animals received the respective vehicle.
Twelve days following subcutaneous implantation of pumps, rats were anesthetized with isoflurane and the pumps were removed. During withdrawal (following pump removal), the auditory startle response (peak amplitude, Vmax) of individual rats was recorded using San Diego Instruments startle chambers (San Diego, Calif.). Startle sessions consisted of a 5-minute adaptation period at a background noise level of 70±2 dBA immediately followed by 25 presentations of auditory stimuli (120±2 dBA noise, 50 ms duration) presented at 8-second intervals. Peak startle amplitudes were then averaged for all 25 presentations of stimuli for each session and all data are presented here as overall session means. Auditory startle responding was evaluated daily on withdrawal days 1,2,3,4 or 5. Baseline startle responding was evaluated prior to pump removal on day 12.

[10] = test system: Long Evans rats; assay: Auditory startle after diazepam withdrawal; format: in vivo, rat (Long Evans)
[11] = test system: mice; assay: Automated elevated plus maze model of anxiety; format: in vivo, mouse (male NIH Swiss); details: five-minute test
Protocol: The elevated plus maze model is based upon the natural aversion of rodents to height and open spaces.
as §2, §3
Automated Elevated Plus Maze
Construction of the elevated plus-maze was based on a design validated for mice by Lister (1987). The entire maze was made of clear Plexiglas. The maze was comprised of two open arms (30×5×0.25 cm) and two enclosed arms (30×5×15 cm). The floor of each maze arm was corrugated to provide texture. The arms extended from a central platform and angled at 90 degrees from each other. The maze was elevated to a height of 45 cm above the floor and illuminated by red light. Individual infrared photocells were mounted along each arm of the maze to monitor closed, open, or nosepoke activity. Mice were individually placed on the central platform of the maze and the number of closed arm, open arm, and nosepoke (poking head only into open arm from closed arm of maze) counts were recorded and used as a measure of arm entries and time spent on various sections of the maze over a five-minute test period.

## N[C@H](C(=O)O)[C@H]1C[C@@H]1C(=O)O [L-CCG-I, (2S,3S,4S)-2-(carboxycyclopropyl)glycine]
[1]
  agonist activity at cAMP-linked metabotropic glutamate receptors: selective cAMP-linked metabotropic glutamate receptor agonist
[2]
  activity at PI-linked metabotropic glutamate receptors: activity at PI-linked metabotropic receptors

## O=C1CC2(CCCC2)CC(=O)N1CCCCN1CCN(c2ncccn2)CC1 [buspirone hydrochloride]
[3]
  reduction of fear (increased startle response) associated with presentation of light: effective at reducing the fear (increased startle response)
[4]
  reduction of fear of open spaces in elevated plus maze: reducing the fear of open spaces

## NC1(C(=O)O)CCC2C(C(=O)O)C21 (single isomer, unassigned; (-)) [Compound 7, (-)-2-Aminobicyclo[3.1.0]hexane-2,6-dicarboxylic Acid]
[5]
  IC50: 161 µM
[6]
  EC50: 29.4 ± 3.04 µM
[7]
  EC50: 22 ± 3.4 µM
[8]; p.o., Inactive = at highest dose tested, 10 mg/kg p.o.
  ED50, fear potentiated startle: Inactive

## NC1(C(=O)O)CCC2C(C(=O)O)C21 (single isomer, unassigned; (+)) [Compound 6, (+)-2-Aminobicyclo[3.1.0]hexane-2,6-dicarboxylic Acid]
[9]; 3 mg/kg, p.o., compared to nicotine controls
  attenuation of heightened startle: significant attenuation
[9]; Rattus norvegicus, ip, compared to nicotine controls, route printed i.p., read-out: ED50, attenuation of nicotine withdrawal-induced heightened startle
  ED50: 0.7 mg/kg
[9]; pretreatment, nicotine withdrawal
  withdrawal-induced increase in startle responding after pretreatment: dose-dependent blockade
[5]
  IC50: 0.18 µM
[6]
  EC50: 0.036 ± 0.015 µM
[10]; 0.1 and 0.3 mg/kg, p.o., compared to control responding
  attenuation of enhanced startle: significantly attenuated enhanced startle
[10]; Rattus norvegicus, po, read-out: ED50, attenuation of diazepam withdrawal-enhanced startle, p.o., compared to control responding
  ED50: 0.1 mg/kg
[10]; pretreatment, diazepam withdrawal
  expected increase in startle responding following cessation of diazepam, after pretreatment: blocked the expected increase in startle responding
[7]
  EC50: 0.055 ± 0.017 µM
[11]; oral, 3 mg/kg
  nosepoke counts: significant increase
[11]; oral, 1, 3 and 10 mg/kg
  open arm activity: significant increases
[11]; oral, any dose
  closed arm activity counts: not significantly altered

## N[C@@]1(C(=O)O)CC[C@H]2[C@H](C(=O)O)[C@H]21 (racemic) [Compound 3, (1SR,2SR,5RS,6SR) 2-Aminobicyclo[3.1.0]hexane-2,6-dicarboxylic Acid]
[5]
  IC50: 0.32 µM

## CN1C(=O)CN=C(c2ccccc2)c2cc(Cl)ccc21 [Diazepam, reference compound]
[3]
  reduction of fear (increased startle response) associated with presentation of light: effective at reducing the fear (increased startle response)
[10]; 30 mg/kg, i.p. daily 60 minutes before evaluation, days 1 through 4, vs diazepam control
  increased reactivity following diazepam cessation with diazepam replacement: did not show increased reactivity
[10]; replacement 3 and 10 mg/kg, i.p.
  increased startle responding with diazepam replacement: did not block the increased startle responding
[10]; replacement 3 and 10 mg/kg, i.p., in some instances
  increased reactivity with diazepam replacement: further increased reactivity
[8]; Rattus norvegicus, po, read-out: ED50, fear potentiated startle
  ED50: 0.4 mg/kg
[4]
  reduction of fear of open spaces in elevated plus maze: reducing the fear of open spaces

## CN1CCC[C@H]1c1cccnc1 [nicotine, reference compound]
[9]; 0.03 mg/kg, i.p., or higher
  heightened startle response with nicotine replacement dose: did not display the same heightened startle response
[9]; first three days after cessation, vs control rats receiving water, nicotine 6 mg/kg/day s.c.
  auditory startle responding following cessation of chronic nicotine exposure: significantly increased

## N[C@@]1(C(=O)O)CC[C@H]2[C@@H](C(=O)O)[C@H]21 (racemic) [Compound 8, (1SR,2SR,5RS,6RS) 2-Aminobicyclo[3.1.0]hexane-2,6-dicarboxylic Acid]
[5]
  IC50: 3.2 µM

## N[C@@]1(C(=O)O)CC[C@@H](C(=O)O)C1 [1S,3R-ACPD, (1S,3R)-1-Aminocyclo-pentane-1,3-dicarboxylic acid]
[1]
  agonist activity at cAMP-linked metabotropic glutamate receptors: agonist of PI-linked and cAMP-linked metabotropic glutamate receptors
[2]
  activity at PI-linked metabotropic glutamate receptors: agonist of PI-linked and cAMP-linked metabotropic glutamate receptors
